In patent publication US20240199647A1, “ANTI-VIRAL COMPOUNDS” (Aligos Therapeutics, Inc., priority 2022, published 2024):
Like-named read-outs stand apart in the source and are kept apart here.

What was measured:
SARS-Cov-2 3CLpro = SARS-Cov-2 3CLpro (Severe acute respiratory syndrome coronavirus 2, UniProt P0DTD1); test: biochemical; details: Table A, class symbols, read-out: SARS-Cov-2 (IC50)
[1] = test system: human beta-coronavirus OC43; test: OC43 Coronavirus Assay in HeLa cells (antiviral, cytopathic effect, cell-titer-glo); assay type: cell-based; details: Betacoronavirus 1, OC43, HeLa
[2] = test system: SARS-CoV-2 B.1.1.7 lineage; test: microbe, parasite or virus in culture; assay type: cell-based; details: Severe acute respiratory syndrome coronavirus 2, Table C, SARS-CoV-2 B.1.1.7 in A549-dual_ACE2_TMPRSS2 cells, read-out: A549-dual_ACE2_TMPRSS2 (EC50)
in vitro = details: human
[3] = Cytotoxicity in HeLa cells without addition of OC43 virus (in parallel); details: human, HeLa cells, without OC43 virus
[4] = Table B, OC43 coronavirus in HeLa cells, class symbols, read-out: EC50

Row | SMILES | IC50 (SARS-Cov-2 3CLpro) [µM] | EC50 [1, 4] [µM] | EC50 ([2]; class symbols) [µM] | CC50 (in vitro) [µM] | CC50 at 6 days [3] [µM] | EC50 ([2]; cells given as a bound) [µM] | EC50 [1] [µM]
1 | CN(C(=O)[C@H](CC1CC1)N1CCOC1=O)[C@@H](CC1CC1)C(=O)N1C[C@@]2(C[C@H]1C#N)Oc1cc(F)cc(F)c1NC2=O [Compound 101] | 0.02 to 0.2 | < 0.1 | 0.1 to 1 | > 1 | > 10 | – | –
2 | COCC[C@H](NC(=O)C(F)(F)F)C(=O)N(C)[C@@H](CC1CC1)C(=O)N1C[C@@]2(C[C@H]1C#N)Oc1cc(F)cc(F)c1NC2=O [Compound 103] | < 0.02 | 1 to 10 | 0.1 to 1 | > 1 | > 10 | – | –
3 | C[C@H](NC(=O)C(F)(F)F)C(=O)N(C)[C@@H](CC1CC1)C(=O)N1C[C@]2(C[C@H]1C#N)C(=O)NCC2Oc1ccccc1 (stereo partly drawn) [Compound 104] | 0.02 to 0.2 | < 0.1 | 0.1 to 1 | > 1 | > 10 | – | –
4 | CCN(C(=O)[C@H](C)NC(=O)C(F)(F)F)[C@@H](CC(C)C)C(=O)N1C[C@@]2(C[C@H]1C#N)Oc1cc(F)cc(F)c1NC2=O [Compound 106] | < 0.02 | 0.1 to 1 | 0.1 to 1 | > 1 | > 10 | – | –
5 | CN(C(=O)[C@@H](CC1CC1)n1cc(C2CC2)nn1)[C@@H](CC1CC1)C(=O)N1C[C@@]2(C[C@H]1C#N)Oc1cc(F)cc(F)c1NC2=O [Compound 107, (R)—N—((S)-1-((2R,5'S)-5′-cyano-5,7-difluoro-3-oxo-3,4-dihydrospiro[benzo[b][1,4]oxazine-2,3′-pyrrolidin]-1′-yl)-3-cyclopropyl-1-oxopropan-2-yl)-3-cyclopropyl-2-(4-cyclopropyl-1H-1,2,3-triazol-1-yl)-N-methylpropanamide] | < 0.02 | 1 to 10 | 0.1 to 1 | > 1 | > 10 | – | –
6 | CN(C(=O)[C@H](CC1CC1)n1cc(C2CC2)nn1)[C@@H](CC1CC1)C(=O)N1C[C@@]2(C[C@H]1C#N)Oc1cc(F)cc(F)c1NC2=O [Compound 108, (S)—N—((S)-1-((2R,5'S)-5′-cyano-5,7-difluoro-3-oxo-3,4-dihydrospiro[benzo[b][1,4]oxazine-2,3′-pyrrolidin]-1′-yl)-3-cyclopropyl-1-oxopropan-2-yl)-3-cyclopropyl-2-(4-cyclopropyl-1H-1,2,3-triazol-1-yl)-N-methylpropanamide] | < 0.02 | 0.1 to 1 | < 0.1 | > 1 | > 10 | – | –
7 | CN(C(=O)[C@@H]1CC[C@@H](c2ccccc2)N1)[C@@H](CC1CC1)C(=O)N1C[C@@]2(C[C@H]1C#N)Oc1cc(F)cc(F)c1NC2=O [Compound 111, (2S,5S)—N—((S)-1-((2R,5'S)-5′-cyano-5,7-difluoro-3-oxo-3,4-dihydrospiro[benzo[b][1,4]oxazine-2,3′-pyrrolidin]-1′-yl)-3-cyclopropyl-1-oxopropan-2-yl)-N-methyl-5-phenylpyrrolidine-2-carboxamide] | < 0.02 | 0.1 to 1 | 0.1 to 1 | > 1 | > 10 | – | –
8 | CN(C)C(=O)c1ccc2c(c1)O[C@@]1(C[C@@H](C#N)N(C(=O)[C@H](CC3CC3)N(C)C(=O)[C@H](CC3CC3)NC(=O)C(F)(F)F)C1)C(=O)N2 [Compound 112, (2R,5'S)-5′-cyano-1′-((S)-3-cyclopropyl-2-((S)-3-cyclopropyl-N-methyl-2-(2,2,2-trifluoroacetamido)propanamido)propanoyl)-N,N-dimethyl-3-oxo-3,4-dihydrospiro[benzo[b][1,4]oxazine-2,3′-pyrrolidine]-7-carboxamide] | < 0.02 | < 0.1 | 0.1 to 1 | > 1 | > 10 | – | –
9 | CN(C(=O)[C@H](CC1CC1)NC(=O)C(F)(F)F)[C@@H](CC1CC1)C(=O)N1C[C@@]2(C[C@H]1C#N)Oc1ccccc1C1(CC1)NC2=O [Compound 113] | 0.02 to 0.2 | 0.1 to 1 | – | > 1 | > 10 | > 1 | –
10 | CN(C(=O)[C@H](CC1CC1)n1cc(-c2ccccc2)nn1)[C@@H](CC1CC1)C(=O)N1C[C@@]2(C[C@H]1C#N)Oc1cc(F)cc(F)c1NC2=O [Compound 114, (S)—N—((S)-1-((2R,5'S)-5′-cyano-5,7-difluoro-3-oxo-3,4-dihydrospiro[benzo[b][1,4]oxazine-2,3′-pyrrolidin]-1′-yl)-3-cyclopropyl-1-oxopropan-2-yl)-3-cyclopropyl-N-methyl-2-(4-phenyl-1H-1,2,3-triazol-1-yl)propenamide] | < 0.02 | 0.1 to 1 | 0.1 to 1 | > 1 | > 10 | – | –
11 | C[C@H](NC(=O)C(F)(F)F)C(=O)N(C)[C@@H](COC(C)(C)C)C(=O)N1C[C@@]2(C[C@H]1C#N)Oc1cc(F)cc(F)c1NC2=O [Compound 115, (S)—N—((S)-3-(t-butoxy)-1-((2R,5'S)-5′-cyano-5,7-difluoro-3-oxo-3,4-dihydrospiro[benzo[b][1,4]oxazine-2,3′-pyrrolidin]-1′-yl)-1-oxopropan-2-yl)-N-methyl-2-(2,2,2-trifluoroacetamido)propenamide] | < 0.02 | 0.1 to 1 | 0.1 to 1 | > 1 | > 10 | – | –
12 | CC(C)N1CC2(CC2)C[C@H]1C(=O)N(C)[C@@H](CC1CC1)C(=O)N1C[C@@]2(C[C@H]1C#N)Oc1cc(F)cc(F)c1NC2=O [Compound 116] | < 0.02 | 0.1 to 1 | 0.1 to 1 | > 1 | > 10 | – | –
13 | CC(C)OC(=O)N[C@@H](C)C(=O)N(C)[C@@H](CC1CC1)C(=O)N1C[C@@]2(C[C@H]1C#N)Oc1cc(F)cc(F)c1NC2=O [Compound 120, isopropyl ((S)-1-(((S)-1-((2R,5'S)-5′-cyano-5,7-difluoro-3-oxo-3,4-dihydrospiro[benzo[b][1,4]oxazine-2,3′-pyrrolidin]-1′-yl)-3-cyclopropyl-1-oxopropan-2-yl)(methyl)amino)-1-oxopropan-2-yl)carbamate] | < 0.02 | 0.1 to 1 | 0.1 to 1 | > 1 | > 10 | – | –
14 | CN(C(=O)[C@H](CC1CC1)NC(=O)C(F)(F)F)[C@@H](CC1CC1)C(=O)N1C[C@@]2(C[C@H]1C#N)Oc1cccnc1CNC2=O [Compound 121, (S)—N—((S)-1-((2R,5'S)-5′-cyano-3-oxo-4,5-dihydro-3H-spiro[pyrido[2,3-f][1,4]oxazepine-2,3′-pyrrolidin]-1′-yl)-3-cyclopropyl-1-oxopropan-2-yl)-3-cyclopropyl-N-methyl-2-(2,2,2-trifluoroacetamido)propanamide] | < 0.02 | < 0.1 | 0.1 to 1 | > 1 | > 10 | – | –
15 | CN(C(=O)[C@H](CC1CC1)NC(=O)C(F)(F)F)[C@@H](CC1CC1)C(=O)N1C[C@@]2(CC1C#N)Oc1c(C#N)cccc1NC2=O (stereo partly drawn) [Compound 124] | < 0.02 | < 0.1 | 0.1 to 1 | > 1 | > 10 | – | –
16 | CN(C(=O)[C@H](CC1CC1)NC(=O)C(F)(F)F)[C@@H](CC1CC1)C(=O)N1C[C@@]2(C[C@H]1C#N)Oc1c(cccc1-c1ccccc1)NC2=O [Compound 125, (S)—N—((S)-1-((2R,5'S)-5′-cyano-3-oxo-8-phenyl-3,4-dihydrospiro[benzo[b][1,4]oxazine-2,3′-pyrrolidin]-1′-yl)-3-cyclopropyl-1-oxopropan-2-yl)-3-cyclopropyl-N-methyl-2-(2,2,2-trifluoroacetamido)propanamide] | < 0.02 | < 0.1 | < 0.1 | > 1 | > 10 | – | –
17 | Cc1cnc2c(c1)NC(=O)[C@]1(C[C@@H](C#N)N(C(=O)[C@H](CC3CC3)N(C)C(=O)[C@H](CC3CC3)NC(=O)C(F)(F)F)C1)O2 [Compound 126, (S)—N—((S)-1-((3R,5'S)-5′-cyano-7-methyl-2-oxo-1,2-dihydrospiro[pyrido[2,3-b][1,4]oxazine-3,3′-pyrrolidin]-1′-yl)-3-cyclopropyl-1-oxopropan-2-yl)-3-cyclopropyl-N-methyl-2-(2,2,2-trifluoroacetamido)propanamide] | < 0.02 | < 0.1 | 0.1 to 1 | > 1 | > 10 | – | –
18 | CN(C(=O)[C@@H]1CCN(C(=O)C(F)(F)F)C1)[C@@H](CC1CC1)C(=O)N1C[C@@]2(C[C@H]1C#N)Oc1cc(F)cc(F)c1NC2=O [Compound 128] | 0.2 to 2 | – | 0.1 to 1 | > 1 | > 10 | – | > 10
19 | CN(C(=O)[C@H]1CCN(C(=O)C(F)(F)F)C1)[C@@H](CC1CC1)C(=O)N1C[C@@]2(C[C@H]1C#N)Oc1cc(F)cc(F)c1NC2=O [Compound 129] | 0.2 to 2 | – | 0.1 to 1 | > 1 | > 10 | – | > 10
20 | Cc1c(-c2ccccc2)nn2c1NC(=O)[C@]21C[C@@H](C#N)N(C(=O)[C@H](CC(C)C)N(C)C(=O)[C@H](C)NC(=O)C(F)(F)F)C1 [Compound 130] | 0.02 to 0.2 | 0.1 to 1 | 0.1 to 1 | > 1 | > 10 | – | –
21 | CN1CCC[C@H]1C(=O)N(C)[C@@H](CC1CC1)C(=O)N1C[C@@]2(C[C@H]1C#N)Oc1cc(F)cc(F)c1NC2=O [Compound 131] | 0.02 to 0.2 | 1 to 10 | – | > 1 | > 10 | > 1 | –
